Drawing on the RepoRT retention time repository (doi:10.1021/acs.analchem.2c02893), this text covers LC retention time for 56 molecules.

The nature of this series: RP, Thermo Scientific Acclaim RSLC 120 C18, 100 × 2.1 mm, 2.2 µm, 30 °C, 0.2 mL/min, estimated dead time 1.1 min; A: 90% water + 10% methanol + 0.01% formic acid + 5 mM ammonium formate, pH 3.61; B: methanol + 0.01% formic acid + 5 mM ammonium formate, pH 3.61; gradient (min/%B) 0/1 1/1 2/39 13/99.9 15/99.9 15.1/1 20.1/1. The settings on record: stereoisomer not certain.
On to `CCCc1nn(C)c2c(=O)[nH]c(-c3cc(C(C)=O)ccc3OCC)nc12` [Gendenafil], for which the LC retention time was 9.81 min.
Then `Cc1ccnc(NS(=O)(=O)c2ccc(N)cc2)n1` [Sulfamerazine], with 3.95 min.
Then `COC(=O)c1ccccc1S(=O)(=O)NC(=O)Nc1nc(C)cc(C)n1` [Sulfometuron-methyl], with 6.92 min; and `CCNc1nc(Cl)nc(N(CC)CC)n1` [Trietazine], with 10.2 min; and `CN(C)C(CCOc1cccc2ccccc12)c1ccccc1` (stereo unspecified) [Dapoxetine], with 8.34 min.
To `Cn1nnc2ccccc21` [Benzotriazole -1-Methyl] belongs 5.11 min; to `Cc1c(NC(C)C)c(=O)n(-c2ccccc2)n1C` [Ramifenazone], 5.72 min.
Regarding `CCOP(=O)(OCC)SCSCC` [Phorate-oxon], the LC retention time was 8.6 min.
Then `Nc1cccc2cc(S(=O)(=O)O)ccc12` [5-Aminonaphthalene-2-sulfonic acid], with 3.27 min.
Regarding `CCN(CC)C(=O)C1C=C2c3cccc4c3C(O)(CC2N(C)C1)C(=O)N4` (stereo unspecified) [2-Oxo-3-hydroxy-LSD], the LC retention time was 4.23 min.
Then `CN1CCC23c4c5ccc(O)c4OC2C(=O)CCC3(O)C1C5` (stereo unspecified) [Oxymorphone], with 2.75 min; and `COc1nn(CSP(=S)(OC)OC)c(=O)s1` [Methidathion], with 8.7 min.
Then `CC1(C)OC(c2ccco2)CN1C(=O)C(Cl)Cl` (stereo unspecified) [Furilazole], with 7.92 min; and `N=C1CN(O)C(c2ccccc2)=c2cc(Cl)ccc2=N1` [Chlordiazepoxide-Desmethyl], with 8.27 min.
`CC1(C)OC2CC3C4CCC5=CC(=O)C=CC5(C)C4C(O)CC3(C)C2(C(=O)CO)O1` (stereo unspecified) [Desonide]: the LC retention time was 9.04 min.
Then `CCNc1nc(NC(C)C)nc(SC)n1` [Ametryn], with 9.16 min.
As for `COc1nc(C)nc(Cl)c1NC1=NCCN1` [Moxonidine], the LC retention time is 3.26 min.
Then `O=C(CCCl)NCc1ccccc1` [Beclamide], with 6.27 min.
To `CC(C)(C)NCC(O)COc1cccc2c1CC(O)C(O)C2` (stereo unspecified) [Nadolol] belongs 4.29 min; to `CC1(c2ccc(Oc3ccccc3)cc2)OC(=O)N(Nc2ccccc2)C1=O` (stereo unspecified) [Famoxadone], 11 min.
Then `NC(N)=NCC1COc2ccccc2O1` (stereo unspecified) [Guanoxan], with 4.57 min; and `CCNc1nc(NC(C)(C)C)nc(SC)n1` [Terbutryn], with 10.2 min; and `CC(C)(C)NC(=O)C1CN(Cc2cccnc2)CCN1CC(O)CC(Cc1ccccc1)C(=O)NC1c2ccccc2CC1O` (stereo unspecified) [Indinavir], with 9.79 min.
For `CCCCCn1cc(C(=O)c2ccc(OC)cc2)c2ccccc21` [RCS-4], the LC retention time was 11.8 min.
`CCCCC(=O)OC1(C(=O)CO)C(C)CC2C3CCC4=CC(=O)C=CC4(C)C3(F)C(O)CC21C` (stereo unspecified) [Betamethasone-17-valerate]: the LC retention time was 11 min.
For the molecule `Cc1cc(NS(=O)(=O)c2ccc(N)cc2)no1` [Sulfamethoxazole], the LC retention time is 4.6 min.
Then `CN1C(=O)CC(C)(c2ccccc2)C1=O` (stereo unspecified) [Methsuximide], with 6.71 min; and `CCCC(NC(C)C(=O)N1C(C(=O)O)CC2CCCCC21)C(=O)OCC` (stereo unspecified) [Perindopril], with 13.2 min.
To `O=C1CN=C(C2=CCCCC2)c2cc(Cl)ccc2N1` [Tetrazepam-Nor] belongs 10.1 min; to `CC12CCC3C4CCC(=O)C=C4CCC3C1CCC2OC(=O)CCc1ccccc1` (stereo unspecified) [Nandrolone phenylpropionate], 13.6 min.
Then `Cn1c(=O)c2c(ncn2CCCNCC(O)c2cc(O)cc(O)c2)n(C)c1=O` (stereo unspecified) [Reproterol], with 3.56 min.
Consider `CCCc1nn(C)c2c(=O)[nH]c(-c3cc(S(=O)(=O)N4CCN(C)CC4)ccc3OCC)nc12` [Sildenafil], for which the LC retention time was 7.88 min.
Then `NC(=O)c1c(Cl)c(Cl)cc(C(=O)O)c1Cl`, with 3.88 min.
To `CC(C(=O)O)c1cccc(C(=O)c2ccccc2)c1` (stereo unspecified) [Ketoprofen] belongs 8.53 min.
Then `CN(C)CCCC1(c2ccc(F)cc2)OCc2cc(C(=O)O)ccc21` (stereo unspecified) [Citalopram carboxylic acid], with 5.83 min.
Take `NC(Cc1cc(I)c(O)c(I)c1)C(=O)O` (stereo unspecified) [Tyrosine-3.5-Diiodo]: the LC retention time was 4.77 min.
To `CN(C)CCCN1c2ccccc2Sc2ccc(C(F)(F)F)cc21` [Triflupromazine] belongs 9.27 min; to `Clc1ccc2nsnc2c1NC1=NCCN1` [Tizanidine], 3.64 min; to `O=C(OC1CC2CCC(C1)[N+]21CCCC1)C(O)(c1ccccc1)c1ccccc1` (stereo unspecified) [Trospium], 5.72 min.
Then `CCCN(CCC)C(=O)SCC` [EPTC], with 10.7 min; and `CCOC(=O)C1=NOC(c2ccccc2)(c2ccccc2)C1` [Isoxadifen-ethyl], with 10.7 min; and `N=C(N)N1CCc2ccccc2C1` [Debrisoquine], with 4.39 min.
To `CN(C)C1C(=O)C(C(N)=O)=C(O)C2(O)C(=O)C3=C(O)c4c(O)ccc(Cl)c4C(C)(O)C3CC12` (stereo unspecified) [Chlortetracycline] belongs 4.5 min; to `CC12CCC3c4ccc(O)cc4CCC3C1CCC2=O` (stereo unspecified) [E1 (1-3-5(10)-estratrien-3-ol-17-one estrone)], 9.56 min.
In the case of `CC(C1=C(CCN(C)C)Cc2ccccc21)c1ccccn1` (stereo unspecified) [Dimetindene], the LC retention time was 6.86 min.
Then `Cc1cc(C)nc(NC(=O)NS(=O)(=O)c2ccccc2C(=O)OC2COC2)n1` [Oxasulfuron], with 6.52 min; and `OCc1nnc2n1-c1ccc(Cl)cc1C(c1ccccc1)=NC2` [Alprazolam- alpha-Hydroxy], with 8.11 min; and `C=C1CC(=CC)C(=O)OC2CCN3CC=C(COC(=O)C1(C)O)C23` (stereo unspecified) [Seneciphylline], with 4.17 min.
To `CN1CC2CC1CN2c1cc2c(cc1F)c(=O)c(C(=O)O)cn2C1CC1` (stereo unspecified) [Danofloxacin] belongs 4.54 min; to `CCCCN(CC)C(=O)SCCC` [Pebulate], 11.5 min.
Then `CCS(=O)Cc1ccccc1OC(=O)NC` (stereo unspecified) [Ethiofencarb-sulfoxide], with 4.7 min.
As for `CCN(CC)CCOC(=O)C(O)(c1ccccc1)c1ccccc1` [Benactyzine], the LC retention time is 6.08 min.
Then `CCNCC(O)c1cccc(O)c1` (stereo unspecified) [Etilefrine], with 2.66 min; and `CCCCCCCCc1ccc(OCCO)cc1` [Octylphenol monoethoxylates (OP1EO)_NH4 adduct], with 12.4 min.
As to `CCCN(CC)CC1COC2(CCC(C(C)(C)C)CC2)O1` (stereo unspecified) [Spiroxamine], the LC retention time was 9.32 min.
Then `CCC(C(=O)O)C1OC(C(C)C(O)C(C)C(=O)C(CC)C2OC3(C=CC(O)C4(CCC(C)(C5CCC(O)(CC)C(C)O5)O4)O3)C(C)CC2C)C(C)CC1C` (stereo unspecified) [Narasin], with 16.1 min.
